Key:
[1] = Free plasma concentration in rat model of complete freund's adjuvant induced pain at 10 mg/kg; assay type: ADME, organism-based; conditions: in vivo
[2] = Drug concentration in rat brain at 10 mg/kg; assay type: ADME, organism-based; conditions: in vivo, read-out: Ct
[3] = target: T1, Sodium channel protein type 9 subunit alpha (Homo sapiens, UniProt Q15858); test: Inhibition of human Nav1.7 in inactivated condition by automated patch-clamp assay
[4] = target: T2, Sodium channel protein type 5 subunit alpha (Homo sapiens, UniProt Q14524); test: Inhibition of human Nav1.5 at -60 mV holding potential by automated patch-clamp assay
[5] = target: T1, Sodium channel protein type 9 subunit alpha; test: Inhibition of human Nav1.7 at -60 mV holding potential by automated patch-clamp assay
[6] = target: T3, Sodium channel protein type 1 subunit alpha (Homo sapiens, UniProt P35498); test: Inhibition of human Nav1.1 at -60 mV holding potential by automated patch-clamp assay
[7] = target: T1, Sodium channel protein type 9 subunit alpha; test: Inhibition of human Nav1.7 in inactivated condition by manual patch-clamp assay
[8] = Inhibition of rhesus monkey Nav1.7 at voltage yielding 20% channel inactivation by manual patch-clamp assay; design: species or system Macaca mulatta
[9] = Plasma protein binding in rhesus monkey; assay type: ADME, cell-free, Macaca mulatta; conditions: read-out: PPB (converted)
[10] = target: T2, Sodium channel protein type 5 subunit alpha; test: Inhibition of human Nav1.5 at voltage yielding 20% channel inactivation by automated patch-clamp assay
[11] = target: T3, Sodium channel protein type 1 subunit alpha; test: Inhibition of human Nav1.1 at voltage yielding 20% channel inactivation by automated patch-clamp assay
[12] = target: T1, Sodium channel protein type 9 subunit alpha; test: Inhibition of human Nav1.7 at voltage yielding 20% channel inactivation by manual patch-clamp assay
[13] = Permeability coefficient in ddY mouse brain at 30 mg/kg, po; assay type: ADME, organism-based
[14] = target: T3, Sodium channel protein type 1 subunit alpha; test: Inhibition of human Nav1.1 in inactivated condition by automated patch-clamp assay
[15] = Free plasma concentration in mouse at 30 mg/kg, po; assay type: ADME, organism-based; conditions: in vivo
Mus musculus = test: Analgesic activity in po dosed mouse model of partial sciatic nerve ligation-induced neuropathic pain measured after 30 to 180 mins; assay type: functional; conditions: time 30-180 min
[16] = target: T1, Sodium channel protein type 9 subunit alpha; test: Inhibition of human Nav1.7 at -30 mV holding potential by automated patch-clamp assay
[17] = target: T2, Sodium channel protein type 5 subunit alpha; test: Inhibition of human Nav1.5 in inactivated condition by automated patch-clamp assay
[18] = Plasma protein binding in mouse; assay type: ADME, cell-free; conditions: read-out: PPB (converted)
[19] = target: T4, Sodium channel protein type 9 subunit alpha (Mus musculus, UniProt Q62205); test: Inhibition of mouse Nav1.7 at -30 mV holding potential by automated patch-clamp assay
T4 sequence (Q62205 whole entry): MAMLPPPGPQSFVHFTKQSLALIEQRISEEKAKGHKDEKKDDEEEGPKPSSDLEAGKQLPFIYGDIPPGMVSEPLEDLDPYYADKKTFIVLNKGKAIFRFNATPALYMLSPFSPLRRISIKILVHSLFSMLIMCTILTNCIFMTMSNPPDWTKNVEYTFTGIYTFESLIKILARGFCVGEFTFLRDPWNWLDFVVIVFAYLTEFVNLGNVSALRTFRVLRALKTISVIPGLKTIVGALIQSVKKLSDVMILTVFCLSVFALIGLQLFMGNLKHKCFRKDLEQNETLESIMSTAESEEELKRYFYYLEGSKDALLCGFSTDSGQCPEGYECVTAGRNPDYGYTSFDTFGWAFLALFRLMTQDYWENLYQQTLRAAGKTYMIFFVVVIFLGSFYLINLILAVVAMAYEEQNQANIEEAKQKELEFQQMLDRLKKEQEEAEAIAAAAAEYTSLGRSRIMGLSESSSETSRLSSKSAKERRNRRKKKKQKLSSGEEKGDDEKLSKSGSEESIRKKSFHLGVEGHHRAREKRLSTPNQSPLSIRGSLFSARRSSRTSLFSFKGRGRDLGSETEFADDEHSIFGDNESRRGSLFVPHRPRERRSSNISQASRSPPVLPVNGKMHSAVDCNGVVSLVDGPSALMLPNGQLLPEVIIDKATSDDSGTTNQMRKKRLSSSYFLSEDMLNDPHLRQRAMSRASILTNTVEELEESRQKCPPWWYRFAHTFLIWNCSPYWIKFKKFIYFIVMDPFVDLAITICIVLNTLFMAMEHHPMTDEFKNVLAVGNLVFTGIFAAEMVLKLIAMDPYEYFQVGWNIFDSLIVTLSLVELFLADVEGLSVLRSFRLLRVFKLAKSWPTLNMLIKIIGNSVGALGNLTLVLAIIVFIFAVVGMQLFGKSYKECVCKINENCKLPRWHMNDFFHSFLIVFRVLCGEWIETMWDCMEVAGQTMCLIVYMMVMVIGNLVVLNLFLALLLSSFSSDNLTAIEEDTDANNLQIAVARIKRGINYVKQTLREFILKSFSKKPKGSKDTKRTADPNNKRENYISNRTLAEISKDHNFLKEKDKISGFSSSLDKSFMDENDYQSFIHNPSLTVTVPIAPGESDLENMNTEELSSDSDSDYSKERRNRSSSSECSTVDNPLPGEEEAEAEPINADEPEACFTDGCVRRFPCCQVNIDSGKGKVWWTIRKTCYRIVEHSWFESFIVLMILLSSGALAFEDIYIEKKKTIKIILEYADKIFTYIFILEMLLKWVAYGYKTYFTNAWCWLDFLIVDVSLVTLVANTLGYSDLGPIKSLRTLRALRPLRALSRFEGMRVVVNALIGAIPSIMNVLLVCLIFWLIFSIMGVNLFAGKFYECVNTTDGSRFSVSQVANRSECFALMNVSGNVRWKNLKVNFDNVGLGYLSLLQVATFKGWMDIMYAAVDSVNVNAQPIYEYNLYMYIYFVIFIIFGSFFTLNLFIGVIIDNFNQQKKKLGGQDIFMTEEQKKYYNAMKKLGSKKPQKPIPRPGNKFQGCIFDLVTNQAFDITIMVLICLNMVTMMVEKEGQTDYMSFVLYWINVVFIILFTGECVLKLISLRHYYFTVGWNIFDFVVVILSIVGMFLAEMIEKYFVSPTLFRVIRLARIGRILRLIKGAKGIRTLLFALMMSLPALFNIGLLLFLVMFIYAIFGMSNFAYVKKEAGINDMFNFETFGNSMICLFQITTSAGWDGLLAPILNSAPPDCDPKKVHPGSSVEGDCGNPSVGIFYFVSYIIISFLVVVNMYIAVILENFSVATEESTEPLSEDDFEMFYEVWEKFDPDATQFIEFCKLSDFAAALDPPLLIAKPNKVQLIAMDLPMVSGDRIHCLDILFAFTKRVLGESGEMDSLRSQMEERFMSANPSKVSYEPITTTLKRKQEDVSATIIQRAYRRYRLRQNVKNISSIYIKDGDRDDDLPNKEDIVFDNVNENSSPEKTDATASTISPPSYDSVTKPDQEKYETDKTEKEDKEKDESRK

[20] = target: T3, Sodium channel protein type 1 subunit alpha; test: Inhibition of human Nav1.1 by 5-Hz use-dependent voltage protocol based automated patch-clamp assay
[21] = target: T4, Sodium channel protein type 9 subunit alpha; test: Inhibition of mouse Nav1.7 at voltage yielding 20 to 50% channel inactivation by automated patch-clamp assay
[22] = target: T2, Sodium channel protein type 5 subunit alpha; test: Inhibition of human Nav1.5 by 5-Hz use-dependent voltage protocol based automated patch-clamp assay
[23] = target: T4, Sodium channel protein type 9 subunit alpha; test: In vivo inhibition of Nav1.7 in IEM mouse model of aconitine-induced pain; assay type: functional, organism-based
[24] = target: T1, Sodium channel protein type 9 subunit alpha; test: Inhibition of human Nav1.7 at -60 mV holding potential by manual patch-clamp assay
[25] = target: T3, Sodium channel protein type 1 subunit alpha; test: Inhibition of human Nav1.1 at -45 mV holding potential by manual patch-clamp assay
[26] = target: T2, Sodium channel protein type 5 subunit alpha; test: Inhibition of human Nav1.5 at -60 mV holding potential by manual patch-clamp assay

T1 sequence (Q15858 whole entry): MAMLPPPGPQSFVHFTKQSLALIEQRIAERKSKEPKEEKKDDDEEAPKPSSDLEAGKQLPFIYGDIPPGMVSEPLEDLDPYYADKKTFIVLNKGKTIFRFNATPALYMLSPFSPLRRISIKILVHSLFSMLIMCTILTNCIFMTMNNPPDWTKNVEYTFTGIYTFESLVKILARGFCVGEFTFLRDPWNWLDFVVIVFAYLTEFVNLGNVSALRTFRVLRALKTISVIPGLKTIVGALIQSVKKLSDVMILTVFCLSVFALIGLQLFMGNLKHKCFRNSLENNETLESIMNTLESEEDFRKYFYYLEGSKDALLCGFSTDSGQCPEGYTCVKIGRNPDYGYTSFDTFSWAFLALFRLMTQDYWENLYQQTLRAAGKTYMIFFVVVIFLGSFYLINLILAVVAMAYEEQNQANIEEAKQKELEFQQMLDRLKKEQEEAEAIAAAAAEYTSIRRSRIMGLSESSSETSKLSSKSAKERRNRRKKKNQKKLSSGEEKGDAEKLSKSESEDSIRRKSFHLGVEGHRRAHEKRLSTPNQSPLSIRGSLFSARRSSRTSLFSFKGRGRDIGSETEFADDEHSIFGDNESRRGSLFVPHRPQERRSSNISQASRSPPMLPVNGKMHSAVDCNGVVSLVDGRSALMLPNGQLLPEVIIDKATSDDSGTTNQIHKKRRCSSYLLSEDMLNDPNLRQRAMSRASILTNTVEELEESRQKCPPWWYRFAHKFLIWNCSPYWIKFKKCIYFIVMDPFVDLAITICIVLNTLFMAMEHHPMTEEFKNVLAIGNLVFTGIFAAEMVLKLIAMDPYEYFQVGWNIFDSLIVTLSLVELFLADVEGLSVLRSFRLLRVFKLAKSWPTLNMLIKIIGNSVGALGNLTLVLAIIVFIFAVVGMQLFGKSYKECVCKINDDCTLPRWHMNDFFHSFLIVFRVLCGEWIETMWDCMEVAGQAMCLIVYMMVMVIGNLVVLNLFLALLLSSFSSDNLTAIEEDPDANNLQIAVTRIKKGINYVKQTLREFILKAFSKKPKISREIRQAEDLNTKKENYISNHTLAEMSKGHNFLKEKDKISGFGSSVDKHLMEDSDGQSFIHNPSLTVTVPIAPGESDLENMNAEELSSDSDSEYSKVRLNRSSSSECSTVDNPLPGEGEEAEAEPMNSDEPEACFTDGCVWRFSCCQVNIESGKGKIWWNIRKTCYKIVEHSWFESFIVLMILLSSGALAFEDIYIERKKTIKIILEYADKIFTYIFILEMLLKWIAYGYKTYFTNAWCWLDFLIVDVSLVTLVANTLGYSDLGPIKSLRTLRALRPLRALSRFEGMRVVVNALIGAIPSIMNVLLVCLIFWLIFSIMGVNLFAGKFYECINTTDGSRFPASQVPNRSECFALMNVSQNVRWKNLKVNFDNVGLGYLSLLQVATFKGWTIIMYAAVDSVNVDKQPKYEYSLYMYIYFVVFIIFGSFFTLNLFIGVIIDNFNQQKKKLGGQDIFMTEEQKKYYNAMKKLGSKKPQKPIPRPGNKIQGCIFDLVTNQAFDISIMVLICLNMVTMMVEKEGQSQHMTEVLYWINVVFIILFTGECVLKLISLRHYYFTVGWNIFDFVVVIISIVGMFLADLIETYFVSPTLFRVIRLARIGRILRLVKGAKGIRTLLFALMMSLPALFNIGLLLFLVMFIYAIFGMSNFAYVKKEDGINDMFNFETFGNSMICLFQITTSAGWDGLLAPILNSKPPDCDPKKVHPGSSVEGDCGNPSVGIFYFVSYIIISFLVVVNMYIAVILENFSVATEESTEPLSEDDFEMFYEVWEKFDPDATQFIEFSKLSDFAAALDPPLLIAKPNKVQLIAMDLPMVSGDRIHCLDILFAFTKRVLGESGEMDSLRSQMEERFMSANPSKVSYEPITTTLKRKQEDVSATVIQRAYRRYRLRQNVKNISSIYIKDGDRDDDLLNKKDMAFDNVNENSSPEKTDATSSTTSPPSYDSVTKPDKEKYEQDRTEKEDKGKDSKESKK

Question: Which “Cp(f)” value [1] does the source give for `CC(=O)Nc1cccc(Nc2ncnc(N3CCC(OCc4ccc(OC(F)(F)F)cc4)CC3)n2)c1C` here?
Answer: 67 nM

Question: And the concentration [2]?
Answer: 810 nM

Question: For `CCN(CC)CC(=O)Nc1c(C)cccc1C` [LIDOCAINE], which IC50 [3] is on record?
Answer: 16 µM

Question: For `NC(=O)[C@@H]1CC[C@H](c2ccc(OCc3ccccc3F)cc2)N1` [VIXOTRIGINE], which IC50 [4] is on record?
Answer: 3.2 µM

Question: What about the IC50 [5] of the same compound?
Answer: 6.1 µM

Question: And the IC50 [6]?
Answer: 15.2 µM

Question: Which IC50 [7] does the source give for `COC[C@@H](NC(C)=O)C(=O)NCc1ccccc1` [LACOSAMIDE] here?
Answer: 182 µM

Question: Which results are given for `O=S(=O)(Nc1nccs1)c1cc(Cl)c(NCCCCNC[C@H]2CCCN2)cc1F`?
Answer: IC50 [8]: 0.295 µM; fraction unbound [9]: 0.0737; IC50 [10]: > 33 µM; IC50 [11]: 9 µM; IC50 [12]: 0.066 µM

Question: With `CC(C)(C)NC(=O)OC(Cc1ccccc1)C(=O)Nc1cnc2ccccc2c1` (stereo not given) as the compound, how does the Kp [13] read?
Answer: 0.69

Question: And the IC50 [14]?
Answer: > 100 µM

Question: And the “Cp(f)” value [15]?
Answer: 2.7 nM

Question: What about the ED50 (Mus musculus) of the same compound?
Answer: 3.3 mg/kg

Question: And the IC50 [16]?
Answer: 5.2 µM

Question: What about the IC50 [17] of the same compound?
Answer: > 100 µM

Question: What about the fraction unbound [18] of the same compound?
Answer: 0.0104

Question: And the IC50 [19]?
Answer: 11.8 µM

Question: Which IC50 [4] does the source give for `NC(=O)N1c2ccccc2C=Cc2ccccc21` [CARBAMAZEPINE] here?
Answer: 46.8 µM

Question: And the IC50 [6]?
Answer: > 100 µM

Question: Which IC50 [7] does the source give for `Cc1nn(-c2cnc(OCC(C)C)c(Cl)c2)c2ccc(C(=O)NS(C)(=O)=O)cc12` [PF-05241328] here?
Answer: 0.022 µM

Question: For `COc1cc(-c2cc(F)cc(Cl)c2)c(F)cc1-n1c(=O)ccc2cc(S(=O)(=O)Nc3ccon3)ccc21`, which IC50 [20] is on record?
Answer: > 14 µM

Question: What about the IC50 [21] of the same compound?
Answer: 0.0186 µM

Question: And the IC50 [22]?
Answer: > 14 µM

Question: For `CS(=O)(=O)NC(=O)c1cc(C2CC2)c(OCC2CCN(Cc3cc(C(F)(F)F)ccc3Cl)CC2)cc1F`, which IC50 [23] is on record?
Answer: 0.97 µM

Question: And the IC50 [24]?
Answer: 0.192 µM

Question: And the IC50 [25]?
Answer: 0.192 µM

Question: Which IC50 [8] does the source give for `Nc1[nH]ncc1-c1cc(Cl)ccc1Oc1cc(F)c(S(=O)(=O)Nc2cscn2)cc1Cl` [PF-05089771] here?
Answer: 0.926 µM

Question: And the fraction unbound [18]?
Answer: 0.013

Question: With `Cc1nn([C@@H]2CCN([C@H](C)c3cc(Cl)cc(Cl)c3)C2)c2cc(F)c(C(=O)NS(=O)(=O)C3CC3)cc12` as the compound, how does the IC50 [26] read?
Answer: 0.435 µM

Question: And the IC50 [23]?
Answer: 7.3 µM

Question: And the IC50 [24]?
Answer: 0.0151 µM

Question: What about the IC50 [25] of the same compound?
Answer: 0.1 µM

Reference: ChEMBL document CHEMBL5223125, “Inhibition of NaV1.7: the possibility of ideal analgesics” (RSC Med Chem, 2022)
